Data from patent US20230085307A1, “PYRIDAZINONE COMPOUND AND HERBICIDE” (NISSAN CHEMICAL CORPORATION, priority 2019, published 2023).

Key:
barnyard grass [1] = test: Test Example 3: herbicidal effect by foliage application, Wagner pot (Table 18, symbol H); type: in vivo, barnyard grass (Echinochloa crus-galli); conditions: 320 g/ha
Procedure, shortened: (§1)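 Plants were sown in alluvial soil held under 0.1–0.5 cm standing water and grown 14 days in a greenhouse at 25–30 °C. An emulsifiable formulation, water-diluted to the set dose, was then sprayed onto the foliage, and effects were scored three weeks later using previously defined criteria.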

Chinese sprangletop = test: Test Example 3: herbicidal effect by foliage application, Wagner pot (Table 18, symbol D); type: in vivo, chinese sprangletop (Leptochloa chinensis); conditions: 320 g/ha
Procedure, shortened: as §1

rice flat sedge = test: Test Example 3: herbicidal effect by foliage application, Wagner pot (Table 18, symbol E); type: in vivo, rice flat sedge (Cyperus iria); conditions: 320 g/ha
Procedure, shortened: as §1

southern crabgrass [2] = test: Test Example 4: herbicidal effect by soil treatment (Table 19, symbol F); type: in vivo, southern crabgrass (Digitaria ciliaris); conditions: amount of applied herbicide 320 g/ha
Procedure, shortened: (§2)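 Step 1: sow seeds in sterilized diluvial soil, cover ~1.5 cm. Step 2: spray diluted emulsion onto soil surface at predetermined rate. Step 3: greenhouse, 25–30° C, three weeks. Step 4: grade effect on each plant by earlier criteria.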

green foxtail [3] = test: Test Example 4: herbicidal effect by soil treatment (Table 19, symbol G); type: in vivo, green foxtail (Setaria viridis); conditions: amount of applied herbicide 320 g/ha
Procedure, shortened: as §2

barnyard grass [4] = test: Test Example 4: herbicidal effect by soil treatment (Table 19, symbol H); type: in vivo, barnyard grass (Echinochloa crus-galli); conditions: amount of applied herbicide 320 g/ha
Procedure, shortened: as §2

wild oat [5] = test: Test Example 4: herbicidal effect by soil treatment (Table 19, symbol I); type: in vivo, wild oat (Avena fatua); conditions: amount of applied herbicide 320 g/ha
Procedure, shortened: as §2

blackgrass [6] = test: Test Example 4: herbicidal effect by soil treatment (Table 19, symbol J); type: in vivo, blackgrass (Alopecurus myosuroides); conditions: amount of applied herbicide 320 g/ha
Procedure, shortened: as §2

Italian ryegrass [7] = test: Test Example 4: herbicidal effect by soil treatment (Table 19, symbol K); type: in vivo, Italian ryegrass (Lolium multiflorum); conditions: amount of applied herbicide 320 g/ha
Procedure, shortened: as §2

windgrass [8] = test: Test Example 4: herbicidal effect by soil treatment (Table 19, symbol L); type: in vivo, windgrass (Apera spica-venti); conditions: amount of applied herbicide 320 g/ha
Procedure, shortened: as §2

velvetleaf [9] = test: Test Example 4: herbicidal effect by soil treatment (Table 19, symbol M); type: in vivo, velvetleaf (Abutilon theophrasti); conditions: amount of applied herbicide 320 g/ha
Procedure, shortened: as §2

redroot pigweed [10] = test: Test Example 4: herbicidal effect by soil treatment (Table 19, symbol N); type: in vivo, redroot pigweed (Amaranthus retroflexus); conditions: amount of applied herbicide 320 g/ha
Procedure, shortened: as §2

lambsquarters [11] = test: Test Example 4: herbicidal effect by soil treatment (Table 19, symbol O); type: in vivo, lambsquarters (Chenopodium album); conditions: amount of applied herbicide 320 g/ha
Procedure, shortened: as §2

chickweed [12] = test: Test Example 4: herbicidal effect by soil treatment (Table 19, symbol P); type: in vivo, common chickweed (Stellaria media); conditions: amount of applied herbicide 320 g/ha
Procedure, shortened: as §2

persian speedwell [13] = test: Test Example 4: herbicidal effect by soil treatment (Table 19, symbol R); type: in vivo, Persian speedwell (Veronica persica); conditions: amount of applied herbicide 320 g/ha
Procedure, shortened: as §2

southern crabgrass [14] = test: Test Example 5: herbicidal effect by foliage application, plastic box (Table 20, symbol F); type: in vivo, southern crabgrass (Digitaria ciliaris); conditions: amount of applied herbicide 320 g/ha; foliage application after 14-day growth; evaluated three weeks after application
Procedure, shortened: (§3)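 Foliar spray test: emulsion formulation diluted in water to a set application rate, sprayed onto 14-day-old plants raised in diluvial soil at 25° C to 30° C under glass. Both herbicidal effect and crop effect rated visually three weeks later.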

green foxtail [15] = test: Test Example 5: herbicidal effect by foliage application, plastic box (Table 20, symbol G); type: in vivo, green foxtail (Setaria viridis); conditions: amount of applied herbicide 320 g/ha; foliage application after 14-day growth; evaluated three weeks after application
Procedure, shortened: as §3

barnyard grass [16] = test: Test Example 5: herbicidal effect by foliage application, plastic box (Table 20, symbol H); type: in vivo, barnyard grass (Echinochloa crus-galli); conditions: amount of applied herbicide 320 g/ha; foliage application after 14-day growth; evaluated three weeks after application
Procedure, shortened: as §3

wild oat [17] = test: Test Example 5: herbicidal effect by foliage application, plastic box (Table 20, symbol I); type: in vivo, wild oat (Avena fatua); conditions: amount of applied herbicide 320 g/ha; foliage application after 14-day growth; evaluated three weeks after application
Procedure, shortened: as §3

blackgrass [18] = test: Test Example 5: herbicidal effect by foliage application, plastic box (Table 20, symbol J); type: in vivo, blackgrass (Alopecurus myosuroides); conditions: amount of applied herbicide 320 g/ha; foliage application after 14-day growth; evaluated three weeks after application
Procedure, shortened: as §3

Italian ryegrass [19] = test: Test Example 5: herbicidal effect by foliage application, plastic box (Table 20, symbol K); type: in vivo, Italian ryegrass (Lolium multiflorum); conditions: amount of applied herbicide 320 g/ha; foliage application after 14-day growth; evaluated three weeks after application
Procedure, shortened: as §3

windgrass [20] = test: Test Example 5: herbicidal effect by foliage application, plastic box (Table 20, symbol L); type: in vivo, windgrass (Apera spica-venti); conditions: amount of applied herbicide 320 g/ha; foliage application after 14-day growth; evaluated three weeks after application
Procedure, shortened: as §3

velvetleaf [21] = test: Test Example 5: herbicidal effect by foliage application, plastic box (Table 20, symbol M); type: in vivo, velvetleaf (Abutilon theophrasti); conditions: amount of applied herbicide 320 g/ha; foliage application after 14-day growth; evaluated three weeks after application
Procedure, shortened: as §3

redroot pigweed [22] = test: Test Example 5: herbicidal effect by foliage application, plastic box (Table 20, symbol N); type: in vivo, redroot pigweed (Amaranthus retroflexus); conditions: amount of applied herbicide 320 g/ha; foliage application after 14-day growth; evaluated three weeks after application
Procedure, shortened: as §3

lambsquarters [23] = test: Test Example 5: herbicidal effect by foliage application, plastic box (Table 20, symbol O); type: in vivo, lambsquarters (Chenopodium album); conditions: amount of applied herbicide 320 g/ha; foliage application after 14-day growth; evaluated three weeks after application
Procedure, shortened: as §3

chickweed [24] = test: Test Example 5: herbicidal effect by foliage application, plastic box (Table 20, symbol P); type: in vivo, common chickweed (Stellaria media); conditions: amount of applied herbicide 320 g/ha; foliage application after 14-day growth; evaluated three weeks after application
Procedure, shortened: as §3

persian speedwell [25] = test: Test Example 5: herbicidal effect by foliage application, plastic box (Table 20, symbol R); type: in vivo, Persian speedwell (Veronica persica); conditions: amount of applied herbicide 320 g/ha; foliage application after 14-day growth; evaluated three weeks after application
Procedure, shortened: as §3

SMILES | herbicidal effect on barnyard grass (H) (barnyard grass [1]) | herbicidal effect on Chinese sprangletop (D) (Chinese sprangletop) | herbicidal effect on rice flat sedge (E) (rice flat sedge) | Herbicidal effect by soil treatment, F: southern crabgrass (southern crabgrass [2]) | Herbicidal effect by soil treatment, G: green foxtail (green foxtail [3]) | Herbicidal effect by soil treatment, H: barnyard grass (barnyard grass [4]) | Herbicidal effect by soil treatment, I: wild oat (wild oat [5]) | Herbicidal effect by soil treatment, J: blackgrass (blackgrass [6]) | Herbicidal effect by soil treatment, K: Italian ryegrass (Italian ryegrass [7]) | Herbicidal effect by soil treatment, L: windgrass (windgrass [8]) | Herbicidal effect by soil treatment, M: velvetleaf (velvetleaf [9]) | Herbicidal effect by soil treatment, N: redroot pigweed (redroot pigweed [10]) | Herbicidal effect by soil treatment, O: lambsquarters (lambsquarters [11]) | Herbicidal effect by soil treatment, P: chickweed (chickweed [12]) | Herbicidal effect by soil treatment, R: persian speedwell (persian speedwell [13]) | Herbicidal effect by foliage application, F: southern crabgrass (southern crabgrass [14]) | Herbicidal effect by foliage application, G: green foxtail (green foxtail [15]) | Herbicidal effect by foliage application, H: barnyard grass (barnyard grass [16]) | Herbicidal effect by foliage application, I: wild oat (wild oat [17]) | Herbicidal effect by foliage application, J: blackgrass (blackgrass [18]) | further results
Cc1nn(C)c(=O)c(-c2c(-c3ccc(OC(F)(F)F)cc3)sc3c(Cl)cccc23)c1O [4-078] | 3 (Herbicidal rate of 40% or more and less than 70%) | 2 (Herbicidal rate of 20% or more and less than 40%) | 3 (Herbicidal rate of 40% or more and less than 70%) | 0 (Herbicidal rate of 5% or less (almost no effect)) | 0 (Herbicidal rate of 5% or less (almost no effect)) | 0 (Herbicidal rate of 5% or less (almost no effect)) | 0 (Herbicidal rate of 5% or less (almost no effect)) | 0 (Herbicidal rate of 5% or less (almost no effect)) | 0 (Herbicidal rate of 5% or less (almost no effect)) | 0 (Herbicidal rate of 5% or less (almost no effect)) | 0 (Herbicidal rate of 5% or less (almost no effect)) | 2 (Herbicidal rate of 20% or more and less than 40%) | 0 (Herbicidal rate of 5% or less (almost no effect)) | 3 (Herbicidal rate of 40% or more and less than 70%) | 4 (Herbicidal rate of 70% or more and less than 90%) | 0 (Herbicidal rate of 5% or less (almost no effect)) | 0 (Herbicidal rate of 5% or less (almost no effect)) | 0 (Herbicidal rate of 5% or less (almost no effect)) | 0 (Herbicidal rate of 5% or less (almost no effect)) | 0 (Herbicidal rate of 5% or less (almost no effect)) | Herbicidal effect by foliage application, K: Italian ryegrass (Italian ryegrass [19]): 0 (Herbicidal rate of 5% or less (almost no effect)); Herbicidal effect by foliage application, L: windgrass (windgrass [20]): 5 (Herbicidal rate of 90% or more (almost completely withered)); Herbicidal effect by foliage application, M: velvetleaf (velvetleaf [21]): 3 (Herbicidal rate of 40% or more and less than 70%); Herbicidal effect by foliage application, N: redroot pigweed (redroot pigweed [22]): 5 (Herbicidal rate of 90% or more (almost completely withered)); Herbicidal effect by foliage application, O: lambsquarters (lambsquarters [23]): 3 (Herbicidal rate of 40% or more and less than 70%); Herbicidal effect by foliage application, P: chickweed (chickweed [24]): 5 (Herbicidal rate of 90% or more (almost completely withered)); Herbicidal effect by foliage application, R: persian speedwell (persian speedwell [25]): 5 (Herbicidal rate of 90% or more (almost completely withered))
Cc1nn(C)c(=O)c(-c2c(-c3ccc(SC(C)C)cc3)sc3c(Cl)cccc23)c1O [4-096] | 5 (Herbicidal rate of 90% or more (almost completely withered)) | 3 (Herbicidal rate of 40% or more and less than 70%) | 3 (Herbicidal rate of 40% or more and less than 70%) | 0 (Herbicidal rate of 5% or less (almost no effect)) | 0 (Herbicidal rate of 5% or less (almost no effect)) | 0 (Herbicidal rate of 5% or less (almost no effect)) | 0 (Herbicidal rate of 5% or less (almost no effect)) | 0 (Herbicidal rate of 5% or less (almost no effect)) | 0 (Herbicidal rate of 5% or less (almost no effect)) | 0 (Herbicidal rate of 5% or less (almost no effect)) | 0 (Herbicidal rate of 5% or less (almost no effect)) | 5 (Herbicidal rate of 90% or more (almost completely withered)) | 3 (Herbicidal rate of 40% or more and less than 70%) | 3 (Herbicidal rate of 40% or more and less than 70%) | 4 (Herbicidal rate of 70% or more and less than 90%) | 0 (Herbicidal rate of 5% or less (almost no effect)) | 3 (Herbicidal rate of 40% or more and less than 70%) | 4 (Herbicidal rate of 70% or more and less than 90%) | 2 (Herbicidal rate of 20% or more and less than 40%) | 3 (Herbicidal rate of 40% or more and less than 70%) | Herbicidal effect by foliage application, K: Italian ryegrass (Italian ryegrass [19]): 4 (Herbicidal rate of 70% or more and less than 90%); Herbicidal effect by foliage application, L: windgrass (windgrass [20]): 3 (Herbicidal rate of 40% or more and less than 70%); Herbicidal effect by foliage application, M: velvetleaf (velvetleaf [21]): 3 (Herbicidal rate of 40% or more and less than 70%); Herbicidal effect by foliage application, N: redroot pigweed (redroot pigweed [22]): 5 (Herbicidal rate of 90% or more (almost completely withered)); Herbicidal effect by foliage application, O: lambsquarters (lambsquarters [23]): 4 (Herbicidal rate of 70% or more and less than 90%); Herbicidal effect by foliage application, P: chickweed (chickweed [24]): 5 (Herbicidal rate of 90% or more (almost completely withered)); Herbicidal effect by foliage application, R: persian speedwell (persian speedwell [25]): 5 (Herbicidal rate of 90% or more (almost completely withered))
